Earlier results in the PKSmart pharmacokinetics tables (Seal et al. 2025).

Experiment: Lombardo, Berellini, Obach 2018, Drug Metab Dispos 46:1466, doi 10.1124/dmd.118.082966
Settings: human; for fraction unbound: plasma; for MRT / Vd / clearance / half-life: in vivo, iv

SMILES	fraction unbound	MRT [h]	Vd [L/kg]	clearance [mL/min/kg]	half-life [h]
C=C1CC[C@@]2(O)[C@H]3Cc4ccc(O)c5c4[C@@]2(CCN3CC2CC2)[C@H]1O5	0.65				
CON=C(C(=O)NC1C(=O)N2C(C(=O)O)=C(CSc3cnns3)CS[C@H]12)c1csc(N)n1 (stereo partly drawn)	0.12	0.82	0.2	4.1	1.14
Nc1nc(-n2cc(C(=O)O)c(=O)c3cc(F)c(N4CC(O)C4)c(Cl)c32)c(F)cc1F		2.5	0.35	2.33	2.1
CN(C)CCCN1c2ccccc2CCc2ccccc21	0.075				
CS(=O)(=O)c1cc(F)cc2c3c(n(Cc4ccc(Cl)cc4)c12)[C@@H](CC(=O)O)CC3		13.7	1	1.21	11.8
C[C@@H](O[C@H]1OCCN(Cc2n[nH]c(=O)[nH]2)[C@H]1c1ccc(F)cc1)c1cc(C(F)(F)F)cc(C(F)(F)F)c1			0.94		13
CC(=O)N[C@H]1[C@H]([C@H](O)[C@H](O)CO)OC(C(=O)O)=C[C@@H]1NC(=N)N		2.4	0.23	1.6	1.7
NNC(=O)c1ccncc1	1	1.8	0.82	7.4	
O=C(/C=C/c1ccc(O)c(O)c1)O[C@@H]1C[C@](O)(C(=O)O)C[C@@H](OC(=O)/C=C/c2ccc(O)c(O)c2)[C@H]1O		1.05	4.82	75.8	3.17
CC(C)C1CCC(C(=O)NC(Cc2ccccc2)C(=O)O)CC1 (stereo not drawn)		1.4	0.15	1.8	1.5
COc1c(-c2ccc3cc(NS(C)(=O)=O)ccc3c2)cc(-n2ccc(=O)[nH]c2=O)cc1C(C)(C)C	0.005		2.13		5.7
Cc1cc(OC[C@H](O)CNC(C)C)c(C)c(C)c1O		3.7	3.6	16.2	3.1
CCCc1c(OCCCS(=O)(=O)c2ccc(C(=O)CCC(=O)O)cc2)ccc(C(C)=O)c1O				17.4	0.04
Cc1ccc(-c2ncc(Cl)cc2-c2ccc(S(C)(=O)=O)cc2)cn1	0.081	32	1.5	0.79	26
OCCN1C[C@H](O)[C@@H](O)[C@H](O)[C@H]1CO		2.7	0.28	1.7	2.3
C[C@H]1COc2c(C3(N)CC3)c(F)cc3c(=O)c(C(=O)O)cn1c23	0.79	2.32	0.68	4.87	2.1
N=C(N)NC(=O)Cc1c(Cl)cccc1Cl		22	5.6	4.5	15
C=CC[N@@+]12CC[C@@]34c5ccccc5N5C=C6[C@H]7C[C@H]8[C@@]9(CC[N@@+]8(CC=C)C/C7=C/CO)c7ccccc7N(C=C([C@@H](C[C@@H]31)/C(=C\CO)C2)[C@H]54)[C@@H]69		4.1	0.32	1.3	3.6
Cc1c(OCC(F)(F)F)ccnc1C[S+](O)c1nc2ccccc2[n-]1 (stereo not drawn)		1.1	0.28	4.4	1
O=C(O)C(CCc1ccccc1)NC1CCCN2CCCC(C(=O)O)N2C1=O (stereo not drawn)		29.5	3.7	2.1	50.6
Cc1nc(=O)c2cc(CN(C)c3ccc(C(=O)NC(CCC(=O)O)C(=O)O)s3)ccc2[nH]1 (stereo not drawn)	0.05	123	6.57	0.9	140
CC(C=Cc1c(C)c(O)c2ccccc2c1O)=CCC[C@H](C)CCC[C@H](C)CCCC(C)C		3.3	0.32	1.6	7.3
CCCC=c1ncc(=CC(Cc2cccs2)C(=O)O)n1Cc1ccc(C(=O)O)cc1 (stereo not drawn)		1.5	0.17	1.9	2.1
Cc1nc2n(c(=O)c1CCN1CCC(c3noc4cc(F)ccc34)CC1)CCCC2O (stereo not drawn)	0.24			1.18	24.6
CC(C)(F)CC(N[C@@H](c1ccc(-c2ccc(S(C)(=O)=O)cc2)cc1)C(F)(F)F)C(=O)NC1(C#N)CC1 (stereo partly drawn)		147	1.63	0.19	108
CCCCCc1cc(O)c2c(c1)OC(C)(C)c1ccc(C)cc1-2		15.9	17	17.9	25.5

SMILES	fraction unbound	MRT [h]	Vd [L/kg]	clearance [mL/min/kg]	half-life [h]
CC(=O)NCCCS(=O)(=O)O	1	1.54	0.3	3.75	3.2
CCc1c(O)cc(O)c(C(=O)c2ccc(OCCN3CCOCC3)c(OC)c2)c1CC(=O)N(CCOC)CCOC		3.21	1.32	6.87	5.94
COc1cc2c(cc1OC)[C@H]1C[C@@H](OC(=O)C(N)C(C)C)[C@H](CC(C)C)CN1CC2 (stereo partly drawn)	0.01	12.8	1.31	1.71	18
CCC/N=C1\S/C(=C\c2ccc(OC[C@H](O)CO)c(Cl)c2)C(=O)N1c1ccccc1C		42.6	2.28	0.9	32.9
CC(C)[C@@H](CC[C@@H](C)[C@H]1CC[C@H]2[C@@H]3[C@H](O)C[C@H]4C[C@@H](NCCCNCCCCN)CC[C@]4(C)[C@H]3CC[C@]12C)OS(=O)(=O)O		3.2	0.23	1.2	9.5
O=C(O[C@H]1C[N+]2(CCCOc3ccccc3)CCC1CC2)C(O)(c1cccs1)c1cccs1		1.76	4.3	48.5	
Cc1ccccc1OCC(O)CNCCOc1ccc(C(N)=O)cc1 (stereo not drawn)	0.089	4.8	4	14	2.5
COc1c(OCCCN2CCOCC2)ccc2c1N=C(NC(=O)c1cnc(N)nc1)N1CCN=C21		26.8	10.3	6.42	25.2
CCN[C@@H](C)Cc1cccc(C(F)(F)F)c1	0.66	18	11	11	14
CCC(C(N)=O)N1CCCC1=O (stereo not drawn)	0.9	11.2	0.6	0.9	8.23
Oc1ccc([C@H]2CNCCc3c2cc(O)c(O)c3Cl)cc1	0.12	0.2	0.5	41.5	1
C=C(CC(NC(=O)c1ccc(CCc2cnc3nc(N)nc(N)c3n2)cc1)C(=O)O)C(=O)O (stereo not drawn)		3.78	0.7	3.08	8.2
OCc1ncc2n1-c1ccc(Cl)cc1C(c1ccccc1F)=NC2	0.1	1.3	0.77	9.71	1.1
N=C(N)N=c1[nH]c(CSCCC(=N)NS(N)(=O)=O)cs1	0.84	3	1.2	6.6	2.8
CCc1[nH]c(=O)[nH]c1C(=O)c1ccncc1		1.2	0.65	9.03	1.32
Nc1nc(Cl)nc2c1ncn2[C@@H]1O[C@H](CO)[C@@H](O)[C@@H]1F		3.8	1.75	7.7	4
N=C(N)c1ccc(OCCCCCOc2ccc(C(=N)N)cc2)cc1	0.09	12	53	74	25
CCCc1nc(C(C)(C)O)c(C(=O)O)n1Cc1ccc(-c2ccccc2-c2nnn[nH]2)cc1				0.29	10.8
CC(C)(C)c1nc(-c2cccc(NS(=O)(=O)c3c(F)cccc3F)c2F)c(-c2ccnc(N)n2)s1	0.003	3.8	0.65	2.86	2.6
NC(=O)C1CC[C@@H]2CN1C(=O)N2OS(=O)(=O)O (stereo partly drawn)	0.93	1.4	0.24	2.76	1.7
CCC1=C(C)CN(C(=O)NCCc2ccc(S(=O)(=O)NC(=O)N[C@H]3CC[C@H](C)CC3)cc2)C1=O			0.19	0.5	10
O=c1[nH]cnc2c([C@@H]3N[C@H](CO)[C@@H](O)[C@H]3O)c[nH]c12				1.56	11.6
C#Cc1cccc(Nc2ncnc3cc(OC)c(OCCCCCCC(O)=NO)cc23)c1		0.78	0.56	12	5.01
NC(=O)N1C(=O)C(C(=O)c2cccs2)c2cc(Cl)ccc21 (stereo not drawn)	0.01	31.6	0.11	0.058	22.7
C[C@@H](O)C1C(=O)N2C(C(=O)[O-])=C(S[C@H]3CC[S@@+](O)C3)S[C@@H]12 (stereo partly drawn)	0.9	0.7	0.21	5.1	0.9
